Values joined by “and” are separate entries in the source; they are usually repeats but may differ in a detail not shown here. Equal values may be shown once.
Experiments:
Type in all cases: in vivo, human
[1] = test system: ulcerative colitis patients in an active stage; experiment: Clinical study, 960 mg orally 3 times a day for 8 weeks: Riley score (histopathological assessment of large intestinal mucosal biopsy)
Description: (§1) The compound of Example 1 or the compound of Comparative Example 1 was orally administered after meals 3 times a day. The number of the given tablets was 8 per administration (i.e., the amount of the compound (1) of Example 1 administered was 960 mg per administration). The administration period was 8 weeks. The compounds were administered until the timing after the breakfast on the day before the assessment day at Week 8.
At the time of the endoscopic examination on the large intestine for the mucosal finding assessment, large intestinal mucosal tissues were sampled (biopsy). The biopsy for the histopathological assessment at Week 0 was conducted during the endoscopic examination on the large intestine for the eligibility determination. […] The sampled tissues were fixed with formalin to prepare histopathological specimens.
The histopathological assessment was scored by a histopathological assessment central adjudication committee according to the following criteria. A Riley score is a total score of the following items.

[2] = test system: ulcerative colitis patients in an active stage; experiment: Clinical study, 960 mg orally 3 times a day for 8 weeks: Mayo score, partial Mayo score, response rate, remission rate; design: key to Mayo score, Mean / Mayo score, Minimum / Mayo score, Maximum / Mayo score, Upper quartile / Mayo score, Median / Mayo score, Lower quartile: Mayo score = total of 4 subscores (stool, bloody stool, mucosa, global); key to Mayo score, difference in mean between Example 1 and Comparative Example 1: Mayo score points (total of 4 subscores)
Description: A tablet comprising 120 mg of the compound of the formula (1) was coated with a film. Thus, a film-coated tablet was prepared (compound of Example 1).
as §1
As the subjects, 102 cases (Comparative Example 1: 51 cases, Example 1: 51 cases) were analyzed for assessment items to be described later.
The investigators or sub-investigators assessed subscores (“stool frequency,” “bloody stool,” “mucosal finding,” and “physician's global assessment”) of the Mayo score according to (1) to (4) below. A Mayo score was a total value of four subscore items of “stool frequency,” “bloody stool,” “mucosal finding,” and “physician's global assessment.” Meanwhile, a partial Mayo score was a total value of three subscore items of the Mayo score excluding “mucosal finding.” Note that, for the Mayo score and the partial Mayo score at Week 0, scores obtained at the time of the eligibility determination were used.
A proportion of subjects satisfying the following conditions (a) and (b) (response rate): • (a) the Mayo score was reduced by 30% or more and by 3 points or more in comparison with that at Week 0; and • (b) the subscore for bloody stool was reduced by 1 point or more in comparison with that at Week 0 or was 1 point or less.
Regarding the response rate (proportion of response cases) (Week 8), Example 1 was compared with Comparative Example 1 by setting a logistic regression model using the following adjusting factors as covariates to conduct a superiority test.
• 1. either subjects on whom a 5-ASA preparation (including a SASP preparation) or a corticosteroid preparation has an insufficient effect or who are intolerant to a 5-ASA preparation (including a SASP preparation) or a corticosteroid preparation; and • 2. the Mayo scores (6 points or more but 7 points or less, 8 points or more but 10 points or less) on the eligibility verification day. (1) Main Analysis
Using the response rate at Week 8 as a primary endpoint, a main effect model was set as the main analysis.
A remission rate is a proportion of subjects each having a Mayo score of 2 points or less with the individual subscores of 1 point or less.

[3] = test system: ulcerative colitis patients in an active stage; experiment: Clinical study, 960 mg orally 3 times a day for 8 weeks: adverse events
Description: as §1

[4] = 960 mg orally 3 times a day for 8 weeks

COC(=O)[C@H](Cc1ccc(-n2c(=O)c3cc(N(C)C)ccc3n(C)c2=O)cc1)NC(=O)c1c(Cl)cccc1Cl [Example 1, methyl(2S)-2-(2,6-dichlorobenzamide)-3-{4-[6-(dimethylamino)-1-methyl-2,4-dioxo-1,4-dihydroquinazolin-3(2H)-yl]phenyl}propanoate]
Riley score, Lower quartile ([1]; Week 0): 9.0
Riley score, Maximum ([1]; Week 0): 17
Riley score, Mean ([1]; Week 0): 11.8±2.8 and 11.8
Riley score, Median ([1]; Week 0): 12.0
Riley score, Minimum ([1]; Week 0): 6
Riley score, Upper quartile ([1]; Week 0): 14.0
Riley score, Lower quartile ([1]; Week 8): 6.0
Riley score, Maximum ([1]; Week 8): 16
Riley score, Mean ([1]; Week 8): 8.6±3.4 and 8.6
Riley score, Median ([1]; Week 8): 9.0
Riley score, Minimum ([1]; Week 8): 3
Riley score, Upper quartile ([1]; Week 8): 11.0
Riley score, difference in mean between Example 1 and Comparative Example 1 ([1]; Week 8): −1.96
Response rate in comparison with Comparative Example (placebo) [2, 4]: significantly improved
Response rate ([2]; 3 months or more but less than 6 months after remission induction therapy started (6/10 cases)): 60.0%
Response rate ([2]; 6 months or more after remission induction therapy started (5/11 cases)): 45.5%
Response rate ([2]; Mayo score 6 points or more but 7 points or less (15/20 cases)): 75.0%
Response rate ([2]; Mayo score 8 points or more but 10 points or less (17/31 cases)): 54.8%
Mayo score, Lower quartile ([2]; Week 0): 7.0
Mayo score, Maximum ([2]; Week 0): 10
Mayo score, Mean ([2]; Week 0): 7.8±1.2 and 7.8
Mayo score, Median ([2]; Week 0): 8.0
Mayo score, Minimum ([2]; Week 0): 6
Mayo score, Upper quartile ([2]; Week 0): 9.0
Partial Mayo score, Lower quartile ([2]; Week 0): 5.0
Partial Mayo score, Maximum ([2]; Week 0): 8
Partial Mayo score, Mean ([2]; Week 0): 5.7±1.1 and 5.7
Partial Mayo score, Median ([2]; Week 0): 6.0
Partial Mayo score, Minimum ([2]; Week 0): 4
Partial Mayo score, Upper quartile ([2]; Week 0): 6.0
Partial Mayo score, Lower quartile ([2]; Week 2): 3.0
Partial Mayo score, Maximum ([2]; Week 2): 8
Partial Mayo score, Mean ([2]; Week 2): 4.4±1.7 and 4.4
Partial Mayo score, Median ([2]; Week 2): 5.0
Partial Mayo score, Minimum ([2]; Week 2): 0
Partial Mayo score, Upper quartile ([2]; Week 2): 6.0
Partial Mayo score, difference in mean between Example 1 and Comparative Example 1 ([2]; Week 2): −0.55
Partial Mayo score, Lower quartile ([2]; Week 4): 2.0
Partial Mayo score, Maximum ([2]; Week 4): 8
Partial Mayo score, Mean ([2]; Week 4): 3.5±2.0 and 3.5
Partial Mayo score, Median ([2]; Week 4): 3.0
Partial Mayo score, Minimum ([2]; Week 4): 0
Partial Mayo score, Upper quartile ([2]; Week 4): 5.0
Partial Mayo score, difference in mean between Example 1 and Comparative Example 1 ([2]; Week 4): −1.16
Difference in remission rates, Example 1 vs Comparative Example 1 (placebo) ([2]; Week 8): 19.6%
Difference in response rates, Example 1 vs Comparative Example 1 (placebo) ([2]; Week 8): 37.3%
Mayo score, Lower quartile ([2]; Week 8): 2.0
Mayo score, Maximum ([2]; Week 8): 9
Mayo score, Mean ([2]; Week 8): 4.0±2.4 and 4.0
Mayo score, Median ([2]; Week 8): 4.0
Mayo score, Minimum ([2]; Week 8): 0
Mayo score, Upper quartile ([2]; Week 8): 5.0
Mayo score, difference in mean between Example 1 and Comparative Example 1 ([2]; Week 8): −2.14
Partial Mayo score, Lower quartile ([2]; Week 8): 2.0
Partial Mayo score, Maximum ([2]; Week 8): 8
Partial Mayo score, Mean ([2]; Week 8): 3.1±2.1 and 3.1
Partial Mayo score, Median ([2]; Week 8): 3.0
Partial Mayo score, Minimum ([2]; Week 8): 0
Partial Mayo score, Upper quartile ([2]; Week 8): 4.0
Partial Mayo score, difference in mean between Example 1 and Comparative Example 1 ([2]; Week 8): −1.63
Remission cases ([2]; Week 8, 51 cases analyzed): 12
Response cases ([2]; Week 8, 51 cases analyzed): 32
Remission rate ([2]; Week 8, all subjects): 23.5%
Response rate ([2]; Week 8, all subjects): 62.7%
Estimate of odds ratio of Example 1 to Comparative Example 1 (placebo group), response rate ([2]; Week 8, logistic regression model): 5.35
Remission rate ([2]; body weight 50 kg or more and disease period less than 5 years (7/22 cases)): 31.8%
Response rate ([2]; body weight 50 kg or more and disease period less than 5 years (16/22 cases)): 72.7%
Response rate ([2]; body weight 50 kg or more but less than 60 kg (9/13 cases)): 69.2%
Response rate ([2]; body weight less than 50 kg (5/9 cases)): 55.6%
Response rate ([2]; disease for 1 year or more but less than 5 years (13/21 cases)): 61.9%
Response rate ([2]; disease for 5 years or more (13/24 cases)): 54.2%
Response rate ([2]; disease for less than 1 year (6/6 cases)): 100.0%
Response rate ([2]; disease occurring for the first time (3/5 cases)): 60.0%
Response rate ([2]; disease relapsing (29/46 cases)): 63.0%
Response rate ([2]; females (13/20 cases)): 65.0%
Response rate ([2]; left-sided colitis subjects (19/29 cases)): 65.5%
Response rate ([2]; less than 1 month after remission induction therapy started (8/13 cases)): 61.5%
Response rate ([2]; males (19/31 cases)): 61.3%
Response rate ([2]; most active site at S or Rs and disease period less than 5 years (9/10 cases)): 90.0%
Response rate ([2]; most active site of mucosal inflammation at Ra or Rb (15/28 cases)): 53.6%
Response rate ([2]; most active site of mucosal inflammation at S or Rs (17/23 cases)): 73.9%
Response rate ([2]; not receiving enema agent or suppository therapy in the active stage this time (21/34 cases)): 61.8%
Response rate ([2]; pancolitis subjects (13/22 cases)): 59.1%
Response rate ([2]; received enema agent or suppository therapy but terminated due to insufficient effect (11/17 cases)): 64.7%
Response rate ([2]; relapsing subjects, disease period less than 5 years (16/22 cases)): 72.7%
Response rate ([2]; relapsing subjects, stool frequency 6 times or less per day (25/32 cases)): 78.1%
Response rate ([2]; stool frequency 6 times or less per day and disease period less than 5 years (16/20 cases)): 80.0%
Response rate ([2]; stool frequency 6 times or less per day before administration (28/37 cases)): 75.7%
Response rate ([2]; stool frequency 7 times or more per day before administration (4/14 cases)): 28.6%
Response rate ([2]; subjects intolerant to a 5-ASA preparation (2/2 cases)): 100.0%
Response rate ([2]; subjects intolerant to a corticosteroid preparation (0/1 case)): 0.0%
Response rate ([2]; subjects on whom a 5-ASA preparation had an insufficient effect (28/46 cases)): 60.9%
Response rate ([2]; subjects on whom a corticosteroid preparation had an insufficient effect (2/2 cases)): 100.0%
Safety (adverse event analysis) [3, 4]: no problem in safety
Severe adverse events ([3]; 8-week study period): no severe adverse event occurred
Incidence rate of moderate adverse events ([3]; 8-week study period (2/51 cases)): 3.9%

— patent US10183022B2, “Pharmaceutical composition for treating ulcerative colitis” (EA Pharma Co., Ltd., priority 2014, dated 2019)
